The target in this experiment is T1, recombinant human (rh) ZBTB16 protein (Homo sapiens, UniProt Q05516).
T1 construct: recombinant human protein immobilised on sensor
T1 sequence (Q05516 1-673): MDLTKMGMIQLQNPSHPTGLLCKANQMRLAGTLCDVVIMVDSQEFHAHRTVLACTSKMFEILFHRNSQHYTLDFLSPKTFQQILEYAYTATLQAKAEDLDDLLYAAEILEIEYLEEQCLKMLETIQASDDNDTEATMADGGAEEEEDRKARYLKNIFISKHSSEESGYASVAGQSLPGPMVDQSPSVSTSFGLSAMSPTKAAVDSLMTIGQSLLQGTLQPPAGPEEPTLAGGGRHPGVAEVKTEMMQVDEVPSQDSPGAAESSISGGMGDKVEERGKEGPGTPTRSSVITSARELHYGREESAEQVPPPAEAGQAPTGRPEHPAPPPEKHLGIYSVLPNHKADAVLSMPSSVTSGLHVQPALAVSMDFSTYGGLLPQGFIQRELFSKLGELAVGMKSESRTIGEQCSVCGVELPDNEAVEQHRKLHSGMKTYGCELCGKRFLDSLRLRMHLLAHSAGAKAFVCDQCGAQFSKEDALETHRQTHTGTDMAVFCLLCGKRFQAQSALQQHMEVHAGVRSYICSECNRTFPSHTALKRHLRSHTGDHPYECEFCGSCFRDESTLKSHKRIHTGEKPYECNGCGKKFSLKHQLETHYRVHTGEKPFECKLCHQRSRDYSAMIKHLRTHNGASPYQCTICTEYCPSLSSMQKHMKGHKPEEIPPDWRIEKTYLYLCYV
Put plainly: surface plasmon resonance (OpenSPR, ZBTB16 immobilised by EDC/NHS). Format: binding.

The structures appear in SMILES notation.

As usually defined, the Kd is the constant that tells how readily two partners part at equilibrium. For `C[C@@H]1CC[C@@]2(OC1)O[C@H]1C[C@H]3[C@@H]4CC=C5C[C@@H](O[C@@H]6O[C@H](CO)[C@@H](O[C@@H]7O[C@@H](CO)[C@H](O)[C@H]7O)[C@H](O)[C@H]6O[C@@H]6O[C@@H](C)[C@H](O)[C@@H](O)[C@H]6O)CC[C@]5(C)[C@H]4CC[C@]3(C)[C@H]1[C@@H]2C` [Polyphyllin I], the Kd came to 5.5 µM.
